The values that follow come from ChEMBL document CHEMBL5727750, “Heterocyclic compounds as immunomodulators” (2020).

Molecules are shown by their SMILES. “And” between values parts separate entries of the source, which are not always exact repeats. Equal entries are not always repeated.

A short description of this test: Nuclear Factor of Activated T-Cells (NFAT) Assay: PD-L1 aAPC/CHO-Klcells (Promega) were maintained in F-12 medium with addition of 10% FBS, 200 μg/ml Hygromycin B, 250 μg/ml Geneticin (G418). Jurkat-PD-1-NFAT effector cells (Promega) were cultured in RPMI 1640 medium supplemented with 10% FBS, 100 μg/ml Hygromycin B, 500 μg/ml G418. The culture media of PD-L1 aAPC/CHO-K1 cells were first replaced with assay medium (RPMI1640 medium with 1% FBS). The PD-L1 aAPC/CHO-K1 cells were then added in a white 384-well white clear bottom assay plate (CELLCOAT® Tissue Culture Plates, Greiner Bio-One) at 8000 per well in 10 μL assay medium. Test compounds were prepared by serial dilution in DMSO and 0.8 μL test compounds in DMSO were first transferred to the 384 REMP plate well (Thermofisher) by PlateMate Plus (Thermofisher) followed with addition of 50 μL plating medium. 5 μL compounds in the assay medium were transferred to the cells with 0.4% DMSO in the final assay at 2 μM. After removing the culture media, 10,000 Jurkat-PD-1-NFAT effector cells in 5 μL assay medium was dispensed into each well. The assay plate was incubated at 37° C., 5% CO2 for 24 hours. After the assay plate was equilibrated to room temp for 15 minutes, 20 µL/well of Bio-Glo™ reagent (Promega) were added. After 8 minutes incubation at room temperature, luminescence was read at with Pherastar microplate reader (BMG Labtech). The fold of induction (FOI) was calculated based on the ratio of luminescence normalized to the DMSO wells within each assay plate. The maximum percentage of induction was reported based on the ratio between the highest FOI of each compound and the maximum FOI of control compound within each assay plate. Wells with DMSO were served as the negative controls and wells containing control compound with the highest FOI were used as positive controls. EC50 determination was performed by fitting the curve of percent control activity versus the log of the compound concentration using the GraphPad Prism 6.0 software.
`Cc1nc(Nc2cccc(-c3cccc(-c4nc5cc(CN6CCC(C(=O)O)CC6)cc(C#N)c5o4)c3C)c2C)c2ncc(CNC[C@H](C)O)cc2n1`: the EC50 entry was “in the range around 55 nM”.
For `Cc1nc(Nc2cccc(-c3cccc(-c4nc5cc(CN6CCC(C(=O)O)CC6)cc(C#N)c5o4)c3C)c2C)c2ncc(CN3CC[C@@H](O)C3)cc2n1` the value was 10 to 100 nM.
Turning to `Cc1nc(Nc2cccc(-c3cccc(-c4nc5cc(CN6CC[C@@](C)(C(=O)O)C6)cc(C#N)c5o4)c3C)c2C)c2ncc(CN3CC[C@@H](O)C3)cc2n1`, the EC50 was 10 to 100 nM.
As for `Cc1c(Nc2nc(C(F)F)nc3cc(CN4CC[C@@H](O)C4)cnc23)cccc1-c1cccc(-c2nc3cc(CN4CCC(C(=O)O)CC4)cc(C#N)c3o2)c1C`, the concentration giving a half-maximal response (EC50) entry is “in the range around 55 nM”.
For the compound `Cc1c(Nc2nc(C(F)F)nc3cc(CN4CC[C@@H](O)C4)cnc23)cccc1-c1cccc(-c2nc3cc(CN4CC[C@H](C(=O)O)C4)cc(C#N)c3o2)c1C`, the EC50 is 10 to 100 nM.
Under `Cc1nc(Nc2cccc(-c3cccc(-c4nc5cc(CN6CC[C@@](C)(C(=O)O)C6)cc(C#N)c5o4)c3C)c2C)c2ncc(CNC[C@H](C)O)cc2n1` stands “in the range around 55 nM”; under `Cc1nc(Nc2cccc(-c3cccc(-c4nc5cc(CN6CCC(C(=O)O)CC6)cc(C#N)c5o4)c3C)c2C)c2ncc(CN3CC[C@](C)(O)C3)cc2n1`, 10 to 100 nM.
Under `Cc1nc(Nc2cccc(-c3cccc(-c4nc5cc(CN6CC[C@@H](C(=O)O)C6)cc(C#N)c5o4)c3C)c2C)c2ncc(CNC[C@H](C)O)cc2n1` stands 10 to 100 nM; under `Cc1nc(Nc2cccc(-c3cccc(-c4nc5cc(CN6CC[C@@H](C(=O)O)C6)cc(C#N)c5o4)c3C)c2C)c2ncc(CN[C@@H](C)CO)cc2n1`, 10 to 100 nM.
Under `Cc1nc(Nc2cccc(-c3cccc(-c4nc5cc(CN6CC[C@@H](C(=O)O)C6)cc(C#N)c5o4)c3C)c2C)c2ncc(CN3CC[C@@H](O)C3)cc2n1` stands 10 to 100 nM and < 10 nM.
For the compound `Cc1c(Nc2nc(N)nc3cc(CN4CC[C@@H](O)C4)cnc23)cccc1-c1cccc(-c2nc3cc(CN4CCC(C(=O)O)CC4)cc(C#N)c3o2)c1C`, the 50% effective concentration (EC50) was 10 to 100 nM.
For `Cc1nc(Nc2cccc(-c3cccc(-c4nc5cc(CN6CC[C@@H](C(=O)O)C6)cc(C#N)c5o4)c3C)c2C)c2ncc(CN3CC[C@@](C)(O)C3)cc2n1` the value was 10 to 100 nM; for `Cc1c(Nc2nc(C(F)F)nc3cc(CN4CC[C@@H](O)C4)cnc23)cccc1-c1cccc(-c2nc3cc(CN4CC[C@](C)(C(=O)O)C4)cc(C#N)c3o2)c1C`, less than 10 nM.
Under `Cc1c(Nc2nc(C(F)F)nc3cc(CN4CC[C@@H](O)C4)cnc23)cccc1-c1cccc(-c2nc3cc(CN4CC[C@@H](C(=O)O)C4)cc(C#N)c3o2)c1C` stands 10 nM and 100 nM and in the range around 55 nM; under `Cc1c(Nc2nc(C(F)F)nc3cc(CN4CC[C@@H](O)C4)cnc23)cccc1-c1cccc(-c2nc3cc(CN4CC[C@@](C)(C(=O)O)C4)cc(C#N)c3o2)c1C`, 10 nM and 100 nM and in the range around 55 nM; under `Cc1nc(Nc2cccc(-c3cccc(-c4nc5cc(CN6CCC(C(=O)O)CC6)cc(C#N)c5o4)c3C)c2C)c2ncc(CN3CC[C@@](C)(O)C3)cc2n1`, 10 to 100 nM.
Take `Cc1c(Nc2nc(C(F)F)nc3cc(CN4CC[C@@H](O)C4)cnc23)cccc1-c1cccc(-c2nc3cc(CN4CCC(C(=O)N(C)C)CC4)cc(C#N)c3o2)c1C`: the EC50 is 10 to 100 nM.
Under `Cc1nc(Nc2cccc(-c3cccc(-c4nc5cc(CN6CC[C@@H](C(=O)O)C6)cc(C#N)c5o4)c3C)c2C)c2ncc(CN3CC[C@](C)(O)C3)cc2n1` stands 10 to 100 nM.
Turning to `Cc1c(Nc2nc(C(F)F)nc3cc(CN4CC[C@@](C)(O)C4)cnc23)cccc1-c1cccc(-c2nc3cc(CN4CCC(C(=O)O)CC4)cc(C#N)c3o2)c1C`, the EC50 was less than 10 nM.
Consider `CNC(=O)C1CCN(Cc2cc(C#N)c3oc(-c4cccc(-c5cccc(Nc6nc(C(F)F)nc7cc(CN8CC[C@@H](O)C8)cnc67)c5C)c4C)nc3c2)CC1`, for which the EC50 is less than 10 nM.
Under `Cc1nc(Nc2cccc(-c3cccc(-c4nc5cc(CN6CC[C@@](C)(C(=O)O)C6)cc(C#N)c5o4)c3C)c2C)c2ncc(CN3CC[C@@](C)(O)C3)cc2n1` stands 10 to 100 nM.
In the case of `Cc1c(Nc2nc(C3CC3)nc3cc(CN4CC[C@@H](O)C4)cnc23)cccc1-c1cccc(-c2nc3cc(CN4CC[C@@H](C(=O)O)C4)cc(C#N)c3o2)c1C`, the EC50 result is “in the range around 55 nM”.
For `Cc1nc(Nc2cccc(-c3cccc(-c4nc5cc(CN6CC[C@@](C)(C(=O)O)C6)cc(C#N)c5o4)c3C)c2C)c2ncc(CN[C@@H](C)CO)cc2n1` the value was “in the range around 55 nM”.
For `Cc1c(Nc2nc(C(F)F)nc3cc(CN4CC[C@](C)(O)C4)cnc23)cccc1-c1cccc(-c2nc3cc(CN4CCC(C(=O)O)CC4)cc(C#N)c3o2)c1C` the value was less than 10 nM; for `Cc1c(Nc2nc(C(F)F)cc3cc(CN4CC[C@@H](O)C4)cnc23)cccc1-c1cccc(-c2nc3cc(CN4CC[C@@](C)(C(=O)O)C4)cc(C#N)c3o2)c1C`, less than 10 nM.
Under `Cc1nc(Nc2cccc(-c3cccc(-c4nc5cc(CN6CCC(C(=O)O)CC6)cc(C#N)c5o4)c3C)c2C)c2ncc(CN[C@@H](C)CO)cc2n1` stands “in the range around 55 nM”.
Regarding `Cc1c(Nc2nc(C(F)F)nc3cc(CN4CC[C@@H](O)C4)cnc23)cccc1-c1cccc(-c2nc3cc(CN4CCC(C)(C(=O)O)CC4)cc(C#N)c3o2)c1C`, the EC50 is 10 to 100 nM.
Under `Cc1nc(Nc2cccc(-c3cccc(-c4nc5cc(CN6CC[C@@](C)(C(=O)O)C6)cc(C#N)c5o4)c3C)c2C)c2ncc(CN3CC[C@](C)(O)C3)cc2n1` stands 10 to 100 nM.
For `Cc1c(Nc2nc(CO)nc3cc(CN4CC[C@@H](O)C4)cnc23)cccc1-c1cccc(-c2nc3cc(CN4CCC(C(=O)O)CC4)cc(C#N)c3o2)c1C` the value was 10 to 100 nM.
For `Cc1c(Nc2nc(C(F)F)nc3cc(CN4CC[C@@H](O)C4)cnc23)cccc1-c1cccc(-c2nc3cc(CN4CCC(C(=O)NCCC(=O)O)CC4)cc(C#N)c3o2)c1C` the value was 10 to 100 nM.
